Here are results for 13 compounds from US20260317332A1, “BICYCLIC HETEROCYCLE COMPOUNDS FOR THE TREATMENT OF CANCER” (Hoffmann-La Roche Inc., priority 2023, published 2026).

pIC50: −log10 of the molar value.

Assay [1] has as its target T1, CD73 (Homo sapiens, UniProt P21589).
T1 sequence (P21589 27-574): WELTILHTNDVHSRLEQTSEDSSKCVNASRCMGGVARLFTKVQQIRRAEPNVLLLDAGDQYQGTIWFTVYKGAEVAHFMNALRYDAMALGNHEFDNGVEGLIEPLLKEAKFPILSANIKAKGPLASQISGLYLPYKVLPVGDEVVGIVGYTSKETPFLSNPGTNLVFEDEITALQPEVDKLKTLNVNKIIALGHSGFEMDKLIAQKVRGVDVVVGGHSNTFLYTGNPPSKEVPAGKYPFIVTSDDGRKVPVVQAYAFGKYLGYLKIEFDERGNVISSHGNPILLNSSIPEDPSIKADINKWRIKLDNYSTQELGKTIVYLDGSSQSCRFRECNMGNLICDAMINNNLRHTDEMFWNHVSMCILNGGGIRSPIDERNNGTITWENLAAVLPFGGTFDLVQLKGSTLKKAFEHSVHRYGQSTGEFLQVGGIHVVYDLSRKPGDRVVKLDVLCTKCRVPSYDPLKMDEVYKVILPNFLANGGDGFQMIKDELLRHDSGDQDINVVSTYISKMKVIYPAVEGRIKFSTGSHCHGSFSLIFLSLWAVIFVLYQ
In words: Human CD73 Biochemical Assay. As to conditions: 0.05 nM recombinant CD73; AMP 5.56 μM final; 10 min at room temperature; LC/MS adenosine readout; read-out: Enzymatic IC50 against human CD73. As to the method: The purpose of this assay is to identify and characterize inhibitors of human CD73 enzymatic activity. Compound serial dilution (1:3) was prepared with Echo 555 liquid handler (Labcyte) into the corresponding wells of a 384-well plate. 10 μL of enzyme working solution (containing 0.05 nM recombinant CD73 protein, 10 mM Tris pH 7.5, 100 mM NaCl, 0.01% BSA, 0.2 mM Octyl glucoside and 1 mM NaH2PO4) was added to the assay plate and incubated with compounds for 15 minutes at room temperature. After adding 15 μL of AMP working solution (Containing 10 mM Tris pH 7.5, 100 mM NaCl, 0.01% BSA, 0.2 mM Octyl glucoside, with 5.56 μM of AMP final concentration) and incubate for 10 min at room temperature. Stop the reaction by adding 75 μL of stop solution (5% TCA in H2O containing 250 nM 13C5-adenosine) to each well for 10 min incubation. After centrifugation, 75 μL of the mixture was transferred to a new 384-well plate for LC/MS analysis.
Samples from the 384-well plates, were loaded onto an autosampler deck, then injected with ADDA-LC-MS/MS. The aqueous mobile phase is 0.1% formic acid in water. The organic mobile phase is 0.1% formic acid in acetonitrile. Flow rate is maintained at 0.8 mL/minute using Shimadzu pumps. The column is ACE 5 Phenyl, 50×2.1 mm. The analysis was performed on a SCIEX triple quadrupole mass spectrometer operating in positive ion mode. The effluent from the HPLC column was directly introduced into the electrospray ionization (ESI). Multiple reaction monitoring (MRM) is used to determine analyte and internal standard (IS) responses. The MRM for adenosine is 268.1/136.1, for 13C5-Adenosine (IS) is 273.2/136.2. The data is calculated using the peak area ratio (PAR) semi-quantitative method.

For assay [2], the target named is T1, CD73. Put plainly: CD73 Cellular Assay. In kind it is cell-based. Set-up: 40 μL of MDA-MB-231 cells (ATCC, HTB-26, breast cancer); host or cells: MDA-MB-231. As to conditions: MDA-MB-231 cells; 200 μM AMP working solution; 45 min at 37° C.; malachite readout; read-out: Cellular IC50 against CD73. On the procedure:
Compound serial dilution (1:3) was prepared with Echo 555 liquid handler (Labcyte) into the corresponding wells of a 384-well plate. 40 μL of MDA-MB-231 cells (ATCC, HTB-26, breast cancer, final concentration at 20,000 cells/mL) suspended in assay buffer (20 mM HEPES pH 7.4, 137 mM NaCl, 5.4 mM KCl, 1.3 mM CaCl2, 4.2 mM NaHCO3, 1 mg/mL glucose) were added into the corresponding wells of the plate. After incubating with compounds for 30 minutes, 40 μL of AMP working solution (200 μM AMP in assay buffer) was added into each well in the assay plate. The assay plate was then incubated in a 5% CO2 incubator (Thermo Fisher Scientific) at 37° C. for 45 min. After the reaction was completed, 50 μL of the supernatants was collected and transferred into a new 384 well plate. 10 μL of Malachite A was added to each well in the assay plate and incubated for 10 minutes. 10 μL of Malachite B was then added to each corresponding well of the plate and incubated for 30 minutes. Finally the absorbance value was read on the Envision plate reader at […]. Calculation percentage inhibition by using equation {% inhibition=100×[1−(X−MIN)/(MAX−MIN)]} where X equals to the well signal, Max equals signal of neutral control and MIN equals signal of inhibitor control.

In the case of `Cn1nc(O[C@H](c2ccc(F)c(OCC(F)(F)F)c2)C(F)F)c2cc(-c3c[nH]c(=O)[nH]c3=O)nnc21` [Example 3, 5-[3-[(1R)-2,2-difluoro-1-[4-fluoro-3-(2,2,2-trifluoroethoxy)phenyl]ethoxy]-1-methyl-pyrazolo[3,4-c]pyridazin-5-yl]-1H-pyrimidine-2,4-dione], the pIC50 – broadly, the IC50 on a negative log10 scale, so that one unit is a factor of ten – was 9.77 in assay [1] and 9.04 in assay [2].

As to `Cn1nc(O[C@H](c2cc(OCC(F)F)ccn2)C(F)F)c2cc(-c3c[nH]c(=O)[nH]c3=O)nnc21` [Example 7, 5-[3-[(1R)-1-[4-(2,2-difluoroethoxy)-2-pyridyl]-2,2-difluoro-ethoxy]-1-methyl-pyrazolo[3,4-c]pyridazin-5-yl]-1H-pyrimidine-2,4-dione], the values for the pIC50 in assay [1] and in assay [2] were 10.10 and 9.23, respectively.

For `Cn1nc(O[C@H](c2cc(OCC(F)(F)F)c(F)cn2)C(F)F)c2cc(-c3c[nH]c(=O)[nH]c3=O)nnc21` [Example 9A, 5-[3-[(1R)-2,2-difluoro-1-[5-fluoro-4-(2,2,2-trifluoroethoxy)-2-pyridyl]ethoxy]-1-methyl-pyrazolo[3,4-c]pyridazin-5-yl]-1H-pyrimidine-2,4-dione], the figures for the pIC50 in assay [1] and in assay [2] were 9.96 and 9.14, respectively.

As to `Cn1nc(O[C@H](c2ccnc(OCC(F)F)c2)C(F)F)c2cc(-c3n[nH]c(=O)[nH]c3=O)nnc21` [Example 13A, 6-[3-[(1R)-1-[2-(2,2-difluoroethoxy)-4-pyridyl]-2,2-difluoro-ethoxy]-1-methyl-pyrazolo[3,4-c]pyridazin-5-yl]-2H-1,2,4-triazine-3,5-dione], the pIC50 in assay [1] is 10.70; in assay [2] it was 9.01.

As to `COCCOc1cc([C@@H](Oc2nn(C)c3nnc(-c4c[nH]c(=O)[nH]c4=O)cc23)C(F)F)ccc1F` [Example 15, 5-[3-[(1R)-2,2-difluoro-1-[4-fluoro-3-(2-methoxyethoxy)phenyl]ethoxy]-1-methyl-pyrazolo[3,4-c]pyridazin-5-yl]-1H-pyrimidine-2,4-dione], the values for the pIC50 in assay [1] and in assay [2] were 10.15 and 9.06, respectively.

Take `Cn1nc(O[C@H](c2ccnc(OCC(C)(F)F)c2)C(F)F)c2cc(-c3c[nH]c(=O)[nH]c3=O)nnc21` [Example 16, 5-[3-[(1R)-1-[2-(2,2-difluoropropoxy)-4-pyridyl]-2,2-difluoro-ethoxy]-1-methyl-pyrazolo[3,4-c]pyridazin-5-yl]-1H-pyrimidine-2,4-dione]: the pIC50 in assay [1] is 10.40; in assay [2], 9.27.

`CCOc1ccnc([C@@H](Oc2nn(C)c3nnc(-c4c[nH]c(=O)[nH]c4=O)cc23)C(F)F)c1` [Example 20, 5-[3-[(1R)-1-(4-ethoxy-2-pyridyl)-2,2-difluoro-ethoxy]-1-methyl-pyrazolo[3,4-c]pyridazin-5-yl]-1H-pyrimidine-2,4-dione]: the pIC50 in assay [1] is 10.22; in assay [2] it was 9.31.

Consider `Cn1nc(O[C@H](c2cc(OCC#N)ccn2)C(F)F)c2cc(-c3c[nH]c(=O)[nH]c3=O)nnc21` [Example 21, 2-[[2-[(1R)-1-[5-(2,4-dioxo-1H-pyrimidin-5-yl)-1-methyl-pyrazolo[3,4-c]pyridazin-3-yl]oxy-2,2-difluoro-ethyl]-4-pyridyl]oxy]acetonitrile], for which the values for the pIC50 in assay [1] and in assay [2] were 10.05 and 9.14, respectively.

Take `Cn1nc(O[C@H](c2cc(OCC3(C(F)(F)F)CC3)ccn2)C(F)F)c2cc(-c3c[nH]c(=O)[nH]c3=O)nnc21` [Example 23, 5-[3-[(1R)-2,2-difluoro-1-[4-[[1-(trifluoromethyl)cyclopropyl]methoxy]-2-pyridyl]ethoxy]-1-methyl-pyrazolo[3,4-c]pyridazin-5-yl]-1H-pyrimidine-2,4-dione]: the pIC50 in assay [1] was 10.10; in assay [2], 9.13.

In the case of `C[C@@H](Nc1cc([C@@H](Oc2nn(C)c3nnc(-c4c[nH]c(=O)[nH]c4=O)cc23)C(F)F)ccn1)C(F)(F)F` [Example 27, 5-[3-[(1R)-2,2-difluoro-1-[2-[[(1R)-2,2,2-trifluoro-1-methyl-ethyl]amino]-4-pyridyl]ethoxy]-1-methyl-pyrazolo[3,4-c]pyridazin-5-yl]-1H-pyrimidine-2,4-dione], the pIC50 in assay [1] was 10.40; in assay [2], 9.32.

`[2H]C([2H])([2H])C([2H])([2H])Oc1cc([C@@H](Oc2nn(C)c3nnc(-c4c[nH]c(=O)[nH]c4=O)cc23)C(F)F)ccn1` [Example 30, 5-[3-[(1R)-2,2-difluoro-1-[2-(1,1,2,2,2-pentadeuterioethoxy)-4-pyridyl]ethoxy]-1-methyl-pyrazolo[3,4-c]pyridazin-5-yl]-1H-pyrimidine-2,4-dione]: the negative logarithm of the IC50 (pIC50) in assay [1] is 10.30; in assay [2] it was 9.22.

As to `Cn1nc(O[C@H](c2ccnc(N3CCC(F)(F)CC3)c2)C(F)F)c2cc(-c3c[nH]c(=O)[nH]c3=O)nnc21` [Example 31, 5-[3-[(1R)-1-[2-(4,4-difluoro-1-piperidyl)-4-pyridyl]-2,2-difluoro-ethoxy]-1-methyl-pyrazolo[3,4-c]pyridazin-5-yl]-1H-pyrimidine-2,4-dione], the pIC50 is 10.30 in assay [1] and 9.26 in assay [2].

On to `Cn1nc(O[C@H](c2ccnc(NC3CCC(F)(F)CC3)c2)C(F)F)c2cc(-c3c[nH]c(=O)[nH]c3=O)nnc21` [Example 32, 5-[3-[(1R)-1-[2-[(4,4-difluorocyclohexyl)amino]-4-pyridyl]-2,2-difluoro-ethoxy]-1-methyl-pyrazolo[3,4-c]pyridazin-5-yl]-1H-pyrimidine-2,4-dione], for which the pIC50 in assay [1] was 10.30; in assay [2], 9.42.
